In general, Cmax refers to the peak of the concentration-time curve. Usually Tmax stands for the time at which the peak concentration occurs.

The source of these data is patent US20230295152A1 (SENDA BIOSCIENCES, INC., priority 2019, published 2023).

Structures are written as SMILES. Like-named read-outs stand apart in the source and are kept apart here.

Data set [1] in a line: In vivo PK study in male CD1 mice. The conditions noted are these: for AUC(0-t): read-out: AUCLast Mean; for AUC(0-inf): read-out: AUCInf Mean. Here is the method:
The studies were conducted in male Sprague Dawley rats, three rats per group, or male CD1 mice, three mice per group. Compounds were dosed 1.0 mg/Kg i.v. (vehicle ethanol: % PEG400 in deionized water, in proportions suitable for dosing a clear solution) and 3.0 mg/kg or 10 mg/kg p.o. (vehicle: 1% methyl cellulose: 1,500 cP in DI water (w/v)). A11 animals had free access to food and water. Rat i.v. PK time points: Plasma: 0.083, 0.25, 0.5, 1, 2, 4, 8 and 24 h; Rat p.o. PK time points: Plasma: 0.25, 0.5, 1, 2, 4, 8 and 24 h. Mouse i.v. PK time points: Plasma: 0.083, 0.25, 0.5, 1, 2, 4, 8, 24, and 48 h; Mouse p.o. PK time points: Plasma: 0.25, 0.5, 1, 2, 4, 8, 24, and 48 h. Concentrations of compound in the plasma samples were analyzed using a LC-MS/MS method. WinNonlin (Phoenix™, version 6.1) or other similar software was used for pharmacokinetic calculations.

Data set [2] in a line: Plasma Protein Binding with Ultracentrifugation Method, mouse. It is filed as in vitro ADME. The note with it: for fraction unbound at 30 min, 1 μM: mouse plasma, read-out: Mouse plasma protein binding (% bound). How it is done: The frozen plasma (stored at −80° C.) was thawed in a 37° C. water bath, followed by centrifugation at 3,220 g for 10 minutes to remove clots. The supernatant was removed into a new tube as the spun plasma. The spun plasma was pre-warmed in a 37° C. water bath for 10 minutes. The stock solutions of test compounds were diluted to 200 μM in DMSO, and then spiked into the plasma. Duplicate samples were prepared. The final concentration of compound was 1.0 μM. The final concentration of organic solvent was 0.5%. Warfarin was used as positive control in the assay. 1.0 mL of the spiked plasma was transferred to a new balance ultracentrifuge tube. Samples were incubated at 37° C., 5% CO2 for 30 minutes. After incubation, the balance ultracentrifuge tubes were centrifuged at 600,000 g for 5.5 hours at 37° C. After centrifugation, 50 μL solution was removed from the center of the ultracentrifuge tubes as the post-ultracentrifugation samples, followed by the addition of 50 μL blank plasma and 400 μL quench solution (acetonitrile containing internal standards (IS, 100 nM Alprazolam, 500 nM Labetalol and 2 μM Ketoprofen)) to precipitate protein and release compounds. Samples were vortexed for 2 minutes, followed by centrifugation at 20,000 g for 15 minutes at room temperature. The supernatant was diluted with ultrapure water and then used for LC-MS/MS analysis. Stability samples was prepared by transferring 50 μL of the spiked plasma to 0.6 mL tubes and incubated at 37° C., 5% CO2 for 0.5 and 6 hours. After incubation, 50 μL PBS (100 mM, pH7.4) and 400 μL quench solution were added to the stability samples. And then stability samples were treated the same way as the post-ultracentrifugation samples. The supernatant was diluted with ultrapure water and then used for LC-MS/MS analysis. 0.5 hour time point samples were also used as no-spun controls. Time 0 samples were prepared by transferring 50 μL spiked plasma to 0.6 mL tubes containing 50 μL PBS, followed by the addition of 400 μL quench solution to precipitate protein and release compound. And then these samples were treated the same way as the post-ultracentrifugation samples. The supernatant was diluted with ultrapure water and then used for LC-MS/MS analysis.
Data Analysis: All calculations were carried out using Microsoft Excel. The concentrations of test compound in plasma samples and post-ultracentrifugation plasma was determined from peak areas. The percentages of test compound bound was calculated as follows: […]
“+++” indicates a % bound value less than 50, “++” indicates a % bound value between 50 and 75, and “+” indicates a % bound value above 75.

Data set [3] can be described thus: Hepatocyte Stability Assay, mouse. As to all read-outs here: tested at 1 µM. It is filed as in vitro ADME. The conditions noted are these: for Mouse hepatocyte clearance: mouse hepatocytes. Here is the method:
Example 7: Hepatocyte Stability Assay
• Preparation of working solutions: 10 mM stock solutions of test compound and positive control were prepared in DMSO. In separate conical tubes, the 10 mM solution of test compound and the positive control were diluted to 100 μM by combining 198 μL of 50% acetonitrile/50% water and 2 μL of 10 mM stock.
Data Analysis: All calculations were carried out using Microsoft Excel. Peak areas were determined from extracted ion chromatograms. In vitro half-life (t1/2) of parent compound was determined by regression analysis of the percent parent disappearance vs. time curve.
The in vitro half-life (in vitro t1/2) was determined from the slope value:
Conversion of the in vitro t1/2 (in min) into the in vitro intrinsic clearance (in vitro CLint, in μL/min/1×10^6 cells) was done using the following equation (mean of duplicate determinations):
V=incubation volume(0.2 mL);
N=number of hepatocytes per well(0.1×10^6 cells).

[4] abbreviates: male, CD1, mouse, plasma, mice, 1 mg/kg IV.
The mark [5] stands for this setting: male, CD1, mouse, plasma, mice, 1 mg/kg IV, read-out: T1/2 Mean (converted).
[6] abbreviates: male, CD1, mouse, plasma, mice, 10 mg/kg PO.
The mark [7] stands for this setting: male, CD1, mouse, plasma, mice, 10 mg/kg PO, read-out: Bioavailability.

As for `CC(C)(O)Cn1cnc2c(-c3cccnc3)nc(-c3ccc(C(F)(F)F)nc3)cc2c1=O` [Compound 9], in data set [1] (in vivo DMPK profile, mouse), the “Mouse CL (% Qh)” value was determined as 3.85 % Qh. Moreover, the AUC(0-t) in data set [1] (setting [4]) stood at 4880 ng·h/mL. The half-life in data set [1] (setting [5]) is 5.37 h. Also, in data set [1] (setting [6]), the peak concentration (Cmax) was 1470 ng/mL, the time to peak (Tmax) was determined as 5.67 h and the AUC(0-inf) amounted to 34200 ng·h/mL. The bioavailability in data set [1] (setting [7]) turned out to be 70.3%. Besides, the clearance in data set [1] (male, CD1, plasma, intravenous, 1 mg/kg, in vivo DMPK profile, mouse, read-out: Mouse CL) was 3.4 mL/min/kg. In data set [1] (male, CD1, plasma, intravenous, 1 mg/kg, in vivo DMPK profile, mouse, read-out: Mouse T1/2 (converted)), the half-life is 5.4 h. The Vd in data set [1] (male, CD1, plasma, intravenous, 1 mg/kg, in vivo DMPK profile, mouse, read-out: Mouse Vss) stood at 1.9 L/kg. Also, the bioavailability in data set [1] (male, CD1, plasma, oral, 10 mg/kg, in vivo DMPK profile, mouse, read-out: Mouse % F) turned out to be 70.3%. For the same compound, in data set [1] (mice, 1 mg/kg IV), the “CI Mean” value is 57 mL/min/kg. Besides, in data set [2], the fraction unbound at 30 min, 1 μM was below 0.25. Also, in data set [2] (mouse, plasma, read-out: Plasma Protein Binding PPB (m) % (converted)), the fraction unbound at 5.5 h, 1 μM was 0.104. The “Suspension mou. heps Clint (% Qh)” value in data set [3] (suspension mouse hepatocytes) is below 33 % Qh.
For the compound `Cn1cc(-c2nc(-c3ccc(C(F)(F)F)nc3)cc3c(=O)n(CC(C)(C)O)cnc23)cn1` [Compound 60], in data set [1] (setting [4]), the C0 stood at 350 ng/mL and the AUC(0-t) is 6520 ng·h/mL. The half-life in data set [1] (setting [5]) was 11.8 h. Further, in data set [1] (setting [6]), the concentration peaked (Cmax) at 1120 ng/mL, the Tmax worked out at 8 h and the AUC(0-t) stood at 29800 ng·h/mL. For the same compound, the bioavailability in data set [1] (setting [7]) turned out to be 45.7%. Also, the “CI Mean” value in data set [1] (mice, 1 mg/kg IV) worked out at 40.3 mL/min/kg. In addition, the fraction unbound at 30 min, 1 μM in data set [2] was below 0.25. Further, the Mouse hepatocyte clearance result in data set [3] is “++ (“++” indicates a CLint between 20 and 50 mL/min/Kg)”.
Consider `Cc1ccc(-c2cc3c(=O)n([C@@H](C)CO)cnc3c(-c3cccnc3)n2)cc1` [Compound 17, (S)-3-(1-hydroxypropan-2-yl)-8-(pyridin-3-yl)-6-(p-tolyl)pyrido[3,4-d]pyrimidin-4(3H)-one], for which, in data set [1] (setting [4]), the C0 is 601 ng/mL and the AUC(0-t) is 231 ng·h/mL. Moreover, the half-life in data set [1] (setting [5]) was 0.504 h. Further, in data set [1] (setting [6]), the concentration peaked (Cmax) at 349 ng/mL, the Tmax was determined as 0.417 h, the AUC(0-inf) stood at 519 ng·h/mL and the AUC(0-t) amounted to 497 ng·h/mL. The bioavailability in data set [1] (setting [7]) was determined as 21.6%. In data set [1] (male, CD1, mouse, plasma, mice, 10 mg/kg PO, read-out: T1/2 Mean (converted)), the half-life was 1.15 h. The “CI Mean” value in data set [1] (mice, 1 mg/kg IV) is 1200 mL/min/kg. In addition, the fraction unbound at 30 min, 1 μM in data set [2] was below 0.25. Besides, in data set [3], the Mouse hepatocyte clearance entry is given as “+ (“+” indicates an CLint above 50 mL/min/Kg)”.
As for `C[C@H](n1cnc2c(-c3cnn(C)c3)nc(-c3ccc(Cl)cc3)cc2c1=O)C(C)(C)O` [Compound 30], in data set [1] (setting [4]), the C0 amounted to 457 ng/mL and the AUC(0-t) came to 6380 ng·h/mL. Moreover, in data set [1] (setting [5]), the half-life was 8.6 h. In addition, in data set [1] (setting [6]), the maximum concentration (Cmax) was found to be 2160 ng/mL, the Tmax is 8 h and the AUC(0-t) is 72800 ng·h/mL. Besides, in data set [1] (setting [7]), the bioavailability was determined as 114%. Moreover, the “CI Mean” value in data set [1] (mice, 1 mg/kg IV) is 43.3 mL/min/kg. Besides, the fraction unbound at 30 min, 1 μM in data set [2] is below 0.25. Besides, the Mouse hepatocyte clearance result in data set [3] is “++ (“++” indicates a CLint between 20 and 50 mL/min/Kg)”.
